Measured values as given in ChEMBL document CHEMBL5131410, “Design and discovery of C2-fluoroalkyl iminothiazine dioxides as BACE inhibitors” (Bioorg Med Chem Lett, 2022).
Values belong to the compound of their own block, whether it stands above or below them.

Legend:
[1] = test system: Rattus norvegicus; experiment: Antialzheimer activity against in po dosed rat assessed as decrease in amyloid beta 40 in CSF measured after 3 hrs; format: functional
[2] = test system: Rattus norvegicus; experiment: Antialzheimer activity against in po dosed rat assessed as plasma concentration required to 50 % decrease in amyloid beta 40 in CSF measured after 3 hrs; format: functional, organism-based
[3] = test system: Rhesus monkey; experiment: Antialzheimer activity against in po dosed rhesus monkey assessed as decrease in amyloid beta 40 in CSF measured after 3 hrs; format: functional; details: Macaca mulatta
[4] = test system: Rhesus monkey; experiment: Antialzheimer activity against in po dosed rhesus monkey assessed as plasma concentration required to 50 % decrease in amyloid beta 40 in CSF measured after 3 hrs; format: functional, organism-based; details: Macaca mulatta
[5] = target: T1, Beta-secretase 1 (Homo sapiens, UniProt P56817); experiment: Inhibition of BACE1 (unknown origin)
[6] = target: T1, Beta-secretase 1; experiment: Inhibition of BACE1 (unknown origin) expressed in HEK293 cells expressing human APP with Swedish and London familial AD mutation; format: cell-based
[7] = test system: Rattus norvegicus; experiment: Antialzheimer activity against in rat assessed as decrease in amyloid beta 40 in CSF at 10 mg/kg, po and measured after 3 hrs relative to control; format: functional; parameters: scale not given: the % may be the effect or the level left
[8] = Dissociation constant, pKa of compound by UV-metric spectrophotometric analysis; format: physicochemical
[9] = test system: MDR1 (human); experiment: Efflux ratio of apparent permeability across basolateral to apical membrane to apical to basolateral membrane in pig LLC-PK1 cells expressing human MDR1 at 1 uM; format: ADME, cell-based, Sus scrofa
[10] = test system: MDR1 (rat); experiment: Efflux ratio of apparent permeability across basolateral to apical membrane to apical to basolateral membrane in pig LLC-PK1 cells expressing rat MDR1 at 1 uM; format: ADME, cell-based, Sus scrofa
[11] = Apparent permeability in pig LLC-PK1 cells; format: ADME, cell-based, Sus scrofa
[12] = target: T2, Voltage-gated inwardly rectifying potassium channel KCNH2 (Homo sapiens, UniProt Q12809); experiment: Displacement of MK499 from human ERG expressed in HEK membrane by radio ligand binding competition assay; format: toxicity, cell membranes, Cell membrane
[13] = Lipophilicity, log D of compound at pH 7 by HPLC analysis; format: physicochemical; details: buffer
[14] = target: Cathepsin D (Homo sapiens, UniProt P07339); experiment: Inhibition of human cathepsin D
[15] = target: T3, Cathepsin E (Homo sapiens, UniProt P14091); experiment: Inhibition of human cathepsin E
T3 sequence (P14091 whole entry): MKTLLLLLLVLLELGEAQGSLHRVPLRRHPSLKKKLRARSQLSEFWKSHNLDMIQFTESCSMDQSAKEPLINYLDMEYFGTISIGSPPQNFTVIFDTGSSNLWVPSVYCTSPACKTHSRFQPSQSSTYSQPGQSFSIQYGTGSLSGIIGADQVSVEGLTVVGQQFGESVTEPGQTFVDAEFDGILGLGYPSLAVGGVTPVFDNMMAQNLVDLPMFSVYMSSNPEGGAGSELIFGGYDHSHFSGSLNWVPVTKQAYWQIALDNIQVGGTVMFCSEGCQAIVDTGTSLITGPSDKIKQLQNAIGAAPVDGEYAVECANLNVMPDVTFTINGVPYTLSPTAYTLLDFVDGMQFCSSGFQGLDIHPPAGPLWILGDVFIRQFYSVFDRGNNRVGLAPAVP

[16] = target: T4, Renin (Homo sapiens, UniProt P00797); experiment: Inhibition of human renin
T4 sequence (P00797 whole entry): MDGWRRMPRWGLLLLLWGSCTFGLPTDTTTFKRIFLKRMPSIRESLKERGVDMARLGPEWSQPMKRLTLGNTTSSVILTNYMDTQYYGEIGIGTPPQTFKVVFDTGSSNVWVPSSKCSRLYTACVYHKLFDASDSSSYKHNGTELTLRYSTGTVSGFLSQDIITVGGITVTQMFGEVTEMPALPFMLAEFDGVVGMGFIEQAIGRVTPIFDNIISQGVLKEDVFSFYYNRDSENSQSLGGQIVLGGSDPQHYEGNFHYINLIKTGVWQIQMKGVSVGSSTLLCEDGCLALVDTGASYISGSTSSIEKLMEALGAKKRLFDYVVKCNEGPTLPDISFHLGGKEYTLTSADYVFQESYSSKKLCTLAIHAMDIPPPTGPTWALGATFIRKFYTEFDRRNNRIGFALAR

[17] = target: Voltage-dependent L-type calcium channel subunit alpha-1C (Homo sapiens, UniProt Q13936); experiment: Inhibition of CAV1.2 (unknown origin)
[18] = target: Sodium channel protein type 2 subunit alpha (Homo sapiens, UniProt Q99250); experiment: Inhibition of NaV1.2 (unknown origin)
[19] = Drug concentration in rat plasma at 10 mg/kg, po after 3 hrs; format: ADME, organism-based
[20] = Drug concentration in rat CSF at 10 mg/kg, po after 3 hrs; format: ADME, organism-based, Cerebrospinal fluid; details: read-out: Ct
[21] = target: T2, Voltage-gated inwardly rectifying potassium channel KCNH2; experiment: Inhibition of human ERG expressed in HEK cells by voltage clamp assay; format: toxicity, cell-based
[22] = Free drug concentration in human plasma; format: ADME, cell-free
[23] = Free drug concentration in cynomolgus monkey plasma; format: ADME, cell-free, Macaca fascicularis
[24] = Free drug concentration in rat plasma; format: ADME, cell-free
[25] = Ratio of drug level in brain to plasma in rat; format: ADME; details: read-out: BPR

T2 sequence (Q12809 whole entry): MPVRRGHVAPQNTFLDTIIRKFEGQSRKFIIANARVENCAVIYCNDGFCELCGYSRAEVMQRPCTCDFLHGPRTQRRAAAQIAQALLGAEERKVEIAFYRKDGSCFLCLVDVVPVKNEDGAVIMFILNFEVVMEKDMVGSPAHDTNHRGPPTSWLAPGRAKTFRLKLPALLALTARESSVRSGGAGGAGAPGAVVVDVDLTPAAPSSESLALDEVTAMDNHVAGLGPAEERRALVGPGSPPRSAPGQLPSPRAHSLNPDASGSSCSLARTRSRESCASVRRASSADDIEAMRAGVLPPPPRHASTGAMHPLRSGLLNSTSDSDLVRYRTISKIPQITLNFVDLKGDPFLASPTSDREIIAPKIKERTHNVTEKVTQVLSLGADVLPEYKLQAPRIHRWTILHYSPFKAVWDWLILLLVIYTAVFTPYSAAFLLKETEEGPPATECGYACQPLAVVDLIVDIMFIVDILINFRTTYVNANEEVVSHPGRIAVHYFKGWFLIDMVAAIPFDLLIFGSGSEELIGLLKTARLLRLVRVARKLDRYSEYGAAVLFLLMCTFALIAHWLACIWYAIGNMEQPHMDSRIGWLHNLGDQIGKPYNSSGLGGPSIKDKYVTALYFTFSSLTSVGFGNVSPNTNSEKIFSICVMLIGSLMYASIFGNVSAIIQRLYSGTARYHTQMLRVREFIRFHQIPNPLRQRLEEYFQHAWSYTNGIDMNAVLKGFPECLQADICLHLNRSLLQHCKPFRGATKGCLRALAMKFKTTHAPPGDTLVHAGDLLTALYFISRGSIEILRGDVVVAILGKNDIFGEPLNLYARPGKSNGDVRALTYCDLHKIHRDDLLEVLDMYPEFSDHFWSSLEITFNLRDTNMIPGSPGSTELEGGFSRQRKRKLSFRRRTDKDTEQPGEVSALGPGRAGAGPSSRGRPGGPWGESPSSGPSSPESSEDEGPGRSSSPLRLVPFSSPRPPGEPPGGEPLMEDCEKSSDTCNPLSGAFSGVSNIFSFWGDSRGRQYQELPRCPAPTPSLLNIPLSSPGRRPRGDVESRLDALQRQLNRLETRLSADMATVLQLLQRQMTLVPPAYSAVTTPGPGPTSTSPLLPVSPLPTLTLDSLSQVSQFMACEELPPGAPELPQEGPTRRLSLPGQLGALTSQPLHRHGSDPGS
T1 sequence (P56817 whole entry): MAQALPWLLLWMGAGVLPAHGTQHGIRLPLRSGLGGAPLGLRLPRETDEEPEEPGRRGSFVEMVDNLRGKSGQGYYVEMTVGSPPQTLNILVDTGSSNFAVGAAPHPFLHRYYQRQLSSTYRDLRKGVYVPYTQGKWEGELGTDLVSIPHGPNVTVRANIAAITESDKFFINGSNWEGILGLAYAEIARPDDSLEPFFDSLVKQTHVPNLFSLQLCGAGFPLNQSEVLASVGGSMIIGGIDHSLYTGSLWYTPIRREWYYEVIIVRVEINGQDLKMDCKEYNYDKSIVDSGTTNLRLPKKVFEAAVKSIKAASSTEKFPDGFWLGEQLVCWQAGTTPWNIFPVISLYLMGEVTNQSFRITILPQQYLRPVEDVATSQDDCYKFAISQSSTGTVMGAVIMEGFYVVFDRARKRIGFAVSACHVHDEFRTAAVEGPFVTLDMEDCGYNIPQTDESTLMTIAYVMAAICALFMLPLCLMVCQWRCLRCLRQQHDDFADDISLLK
Chain of Voltage-dependent L-type calcium channel subunit alpha-1C (Q13936 whole entry): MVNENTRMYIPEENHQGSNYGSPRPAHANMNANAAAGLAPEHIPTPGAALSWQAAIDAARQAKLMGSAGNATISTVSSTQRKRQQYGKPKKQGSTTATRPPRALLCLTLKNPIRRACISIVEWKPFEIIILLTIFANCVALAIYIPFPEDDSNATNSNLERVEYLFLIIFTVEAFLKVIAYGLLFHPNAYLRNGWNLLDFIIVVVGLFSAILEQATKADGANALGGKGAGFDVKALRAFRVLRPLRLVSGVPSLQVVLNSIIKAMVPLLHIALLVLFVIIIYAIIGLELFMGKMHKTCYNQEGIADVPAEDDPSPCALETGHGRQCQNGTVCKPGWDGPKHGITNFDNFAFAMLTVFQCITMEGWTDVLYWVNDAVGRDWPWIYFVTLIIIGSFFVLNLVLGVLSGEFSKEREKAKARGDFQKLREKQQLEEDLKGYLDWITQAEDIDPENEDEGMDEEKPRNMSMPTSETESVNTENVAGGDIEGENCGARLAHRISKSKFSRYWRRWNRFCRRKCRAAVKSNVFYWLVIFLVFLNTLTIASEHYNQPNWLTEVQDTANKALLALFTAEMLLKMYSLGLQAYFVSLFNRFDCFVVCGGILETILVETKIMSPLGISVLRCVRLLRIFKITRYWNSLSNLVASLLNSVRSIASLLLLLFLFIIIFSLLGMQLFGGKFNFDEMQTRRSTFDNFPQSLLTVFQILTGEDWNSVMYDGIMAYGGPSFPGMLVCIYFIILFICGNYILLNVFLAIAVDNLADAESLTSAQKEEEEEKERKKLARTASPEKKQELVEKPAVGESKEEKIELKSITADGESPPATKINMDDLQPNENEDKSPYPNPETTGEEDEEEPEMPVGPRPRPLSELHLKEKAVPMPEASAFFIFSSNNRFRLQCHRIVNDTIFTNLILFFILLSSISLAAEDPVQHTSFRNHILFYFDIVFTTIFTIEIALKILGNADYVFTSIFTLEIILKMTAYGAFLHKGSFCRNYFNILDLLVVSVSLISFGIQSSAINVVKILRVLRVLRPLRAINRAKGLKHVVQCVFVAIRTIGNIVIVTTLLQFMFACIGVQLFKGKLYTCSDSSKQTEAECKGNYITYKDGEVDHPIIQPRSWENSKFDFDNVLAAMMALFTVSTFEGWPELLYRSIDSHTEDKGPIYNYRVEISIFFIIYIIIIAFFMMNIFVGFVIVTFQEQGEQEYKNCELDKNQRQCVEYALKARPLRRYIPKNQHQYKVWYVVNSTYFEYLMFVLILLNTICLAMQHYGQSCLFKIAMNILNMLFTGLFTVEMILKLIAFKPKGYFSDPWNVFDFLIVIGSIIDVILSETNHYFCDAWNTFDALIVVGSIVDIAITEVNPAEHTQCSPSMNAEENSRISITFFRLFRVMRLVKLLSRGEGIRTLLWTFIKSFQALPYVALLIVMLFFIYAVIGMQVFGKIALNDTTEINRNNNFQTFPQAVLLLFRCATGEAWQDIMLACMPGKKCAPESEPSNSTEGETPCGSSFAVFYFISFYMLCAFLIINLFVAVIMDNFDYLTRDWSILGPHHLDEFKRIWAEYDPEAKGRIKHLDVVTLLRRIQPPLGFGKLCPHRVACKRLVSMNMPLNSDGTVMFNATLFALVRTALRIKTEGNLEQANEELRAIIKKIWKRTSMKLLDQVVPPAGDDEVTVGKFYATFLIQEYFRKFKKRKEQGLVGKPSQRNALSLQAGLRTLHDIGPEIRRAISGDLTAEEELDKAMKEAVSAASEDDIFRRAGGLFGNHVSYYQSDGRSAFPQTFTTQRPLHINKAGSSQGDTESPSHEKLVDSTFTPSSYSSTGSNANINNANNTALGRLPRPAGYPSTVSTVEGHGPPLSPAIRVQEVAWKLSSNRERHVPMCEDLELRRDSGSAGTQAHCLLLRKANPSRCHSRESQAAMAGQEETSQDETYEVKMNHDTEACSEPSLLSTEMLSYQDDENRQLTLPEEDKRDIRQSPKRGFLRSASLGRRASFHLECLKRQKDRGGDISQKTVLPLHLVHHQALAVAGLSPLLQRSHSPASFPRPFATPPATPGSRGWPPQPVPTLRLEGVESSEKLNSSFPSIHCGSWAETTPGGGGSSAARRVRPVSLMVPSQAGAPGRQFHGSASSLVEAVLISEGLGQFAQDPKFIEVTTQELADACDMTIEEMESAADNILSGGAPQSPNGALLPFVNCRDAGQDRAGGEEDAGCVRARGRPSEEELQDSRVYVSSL
Chain of Cathepsin D (P07339 65-162 limits assumed): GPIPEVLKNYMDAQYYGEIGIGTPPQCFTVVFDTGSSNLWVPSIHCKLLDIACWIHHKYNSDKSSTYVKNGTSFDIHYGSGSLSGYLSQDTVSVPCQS
Chain of Cathepsin D (P07339 169-412 limits assumed): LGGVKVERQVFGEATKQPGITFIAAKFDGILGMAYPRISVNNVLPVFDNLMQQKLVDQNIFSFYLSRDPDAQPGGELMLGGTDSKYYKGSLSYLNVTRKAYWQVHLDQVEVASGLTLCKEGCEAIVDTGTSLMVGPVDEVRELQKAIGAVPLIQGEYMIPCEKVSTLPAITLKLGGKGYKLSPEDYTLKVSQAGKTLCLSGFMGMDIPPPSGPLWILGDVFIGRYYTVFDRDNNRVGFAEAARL

EC50 [2]: 15 nM | EC50 [4]: 23 nM
Structure (SMILES): COc1cnc(C(=O)Nc2ccc(F)c([C@]3(C)CS(=O)(=O)C(C)(C)C(N)=N3)c2)cn1
ED50 [1]: 1.2 mg/kg | ED50 [3]: 0.3 mg/kg

Ki [5]: 12 nM | IC50 [6]: 171 nM
Structure (SMILES): COc1cnc(C(=O)Nc2ccc(F)c([C@]3(C)CS(=O)(=O)[C@](C)(C(F)F)C(=N)N3)c2)cn1

Ki [5]: 3 nM | IC50 [6]: 7 nM
Structure (SMILES): C[C@@]1(c2nc(NC(=O)c3ccc(C#N)cn3)ccc2F)CS(=O)(=O)[C@](C)(CF)C(=N)N1

Structure (SMILES): CC1(C)C(=N)N[C@](C)(c2nc(NC(=O)c3ccc(C#N)cn3)ccc2F)CS1(=O)=O
Activity [7]: 88%

Ki [5]: 1 nM | IC50 [6]: 1 nM
Structure (SMILES): Cc1cc(C#N)cnc1C(=O)Nc1ccc(F)c([C@]2(C)CS(=O)(=O)[C@@](C)(CF)C(=N)N2)n1
Activity [7]: 92%

Ki [5]: 2 nM | IC50 [6]: 3 nM
Structure (SMILES): C[C@]1(CF)C(=N)N[C@](C)(c2nc(NC(=O)c3ccc(C#N)cn3)ccc2F)CS1(=O)=O

Ki [5]: 3 nM | IC50 [6]: 11 nM
Structure (SMILES): Cc1cc(C#N)cnc1C(=O)Nc1ccc(F)c([C@]2(C)CS(=O)(=O)[C@](C)(C(F)F)C(=N)N2)n1
Activity [7]: 80%

Ki [5]: 4 nM | IC50 [6]: 14 nM
Structure (SMILES): COc1cnc(C(=O)Nc2ccc(F)c([C@]3(C)CS(=O)(=O)[C@](C)(CF)C(=N)N3)c2)cn1

Ki [5]: 10 nM | IC50 [6]: 78 nM | pKa [8]: 5.95 | efflux ratio at 1 µM [9]: 0.8 | efflux ratio at 1 µM [10]: 3.7 | Papp [11]: 32.7 ×10⁻⁶ cm/s | logD [13]: 2.5
Structure (SMILES): C[C@@]1(C(F)F)C(=N)N[C@](C)(c2nc(NC(=O)c3ccc(C#N)cn3)ccc2F)CS1(=O)=O
IC50 [12]: 24200 nM

Ki [5]: 1 nM | IC50 [6]: 3 nM | EC50 [2]: 130 nM | EC50 [4]: 20 nM | Ki [14]: 5880 nM | Ki [15]: > 30500 nM | Ki [16]: > 19100 nM | IC50 [18]: > 30000 nM
Structure (SMILES): Cc1cc(C#N)cnc1C(=O)Nc1ccc(F)c([C@]2(C)CS(=O)(=O)[C@@](C)(C(F)F)C(=N)N2)n1
Activity [7]: 91% | ED50 [1]: 3 mg/kg | ED50 [3]: < 3 mg/kg | IC50 [17]: 7060 nM

Ki [5]: 2 nM | IC50 [6]: 2 nM
Structure (SMILES): Cc1cc(C#N)cnc1C(=O)Nc1ccc(F)c([C@]2(C)CS(=O)(=O)[C@](C)(CF)C(=N)N2)n1
Activity [7]: 68%

Ki [5]: 3 nM | IC50 [6]: 30 nM
Structure (SMILES): COc1cnc(C(=O)Nc2ccc(F)c([C@]3(C)CS(=O)(=O)[C@@](C)(C(F)F)C(=N)N3)c2)cn1

Ki [5]: 3 nM | IC50 [6]: 11 nM | pKa [8]: 6.19 | efflux ratio at 1 µM [9]: 1 | efflux ratio at 1 µM [10]: 8.6 | Papp [11]: 28.6 ×10⁻⁶ cm/s | logD [13]: 2.3 | concentration at 3 h [19]: 154 nM | concentration at 3 h [20]: 8 nM
Structure (SMILES): C[C@@]1(c2nc(NC(=O)c3ccc(C#N)cn3)ccc2F)CS(=O)(=O)[C@@](C)(C(F)F)C(=N)N1
Activity [7]: 80% | IC50 [12]: 2420 nM

Ki [5]: 5 nM | IC50 [6]: 12 nM
Structure (SMILES): COc1cnc(C(=O)Nc2ccc(F)c([C@]3(C)CS(=O)(=O)[C@@](C)(CF)C(=N)N3)c2)cn1

pKa [8]: 7.5 | Papp [11]: 23 ×10⁻⁶ cm/s | fraction unbound [22]: 0.24 | fraction unbound [23]: 0.18 | fraction unbound [24]: 0.21 | EC50 [2]: 110 nM | Kp [25]: 0.23 | EC50 [4]: 41 nM
Structure (SMILES): CN1C(N)=N[C@](C)(c2cc(NC(=O)c3ccc(F)cn3)ccc2F)CS1(=O)=O [VERUBECESTAT]
IC50 [21]: 2200 nM | ED50 [1]: 0.69 mg/kg | ED50 [3]: < 3 mg/kg
